What all share (type): in vivo, human
The test system of data set [1] is overnight abstinent smokers. Nature of the data set: Blood measurements: insulin, glucose, C-peptide, non-esterified fatty acids (Example 1). As for the experimental part:
Blood measurements: Blood samples were analyzed for measurements of insulin, glucose, C-peptide, and non-esterified fatty acids.
Serum insulin was analyzed on the Immulite 1000 immunoassay system (Siemens Healthcare GmbH, Erlangen, Germany). This is a solid-phase, enzyme-labeled chemiluminescent immunometric assay. The solid phase (bead) was coated with monoclonal murine anti-insulin antibody. The liquid phase consisted of alkaline phosphatase (bovine calf intestine) conjugated to polyclonal sheep anti-insulin antibody and alkaline phosphatase (bovine calf intestine) conjugated to monoclonal murine anti-insulin antibody. The patient sample and the reagent were incubated together with the coated bead for 60 minutes. During this time, insulin in the sample forms the antibody sandwich complex with the monoclonal murine anti-insulin antibody on the bead, enzyme conjugated polyclonal sheep anti-insulin antibody, and enzyme conjugated monoclonal murine anti-insulin antibody in the reagent. Unbound patient sample and enzyme conjugate were then removed by centrifugal washes. Finally, chemiluminescent substrate was added to the test unit containing the bead and the signal is generated in proportion to the bound enzyme.
Serum glucose was performed on the ACE ALERA system (Alfa Wassermann Diagnostic Technologies, S.p.A., Bologna, Italy). An increase in absorbance of NADH is directly proportional to glucose concentration, and was measured bichromatically at 340 nm/378 nm.
Serum C-peptide was performed on the Immulite 1000 immunoassay system (Siemens Healthcare GmbH, Erlangen, Germany). This is a solid-phase, two-site chemiluminescent immunometric assay. The solid phase (bead) is coated with monoclonal murine anti-C-peptide antibody. The liquid phase consists of alkaline phosphatase (bovine calf intestine) conjugated to monoclonal murine anti-C-peptide antibody in buffer. The patient sample and the reagent were incubated together with the coated bead for 30 minutes. During this time, C-peptide in the sample forms the antibody sandwich complex with monoclonal murine anti-C-peptide antibody in the reagent. Unbound patient sample and enzyme conjugate were then removed by centrifugal washes. Finally, chemiluminescent substrate was added to the Test Unit containing the bead and the signal is generated in proportion to the bound enzyme.
Blood samples were collected at 12:20, 13:00, 13:40, and 14:10 and analyzed for non-esterified fatty acids using an AU 480 chemistry analyzer (Beckman Coulter, Inc., Brea, Calif.) using a NEFA-HR(2) kit (Wako Chemicals USA, Inc., Cape Charles, Va.).
Random coefficient models were constructed for analyzing subjective (i.e., craving and mood), blood (insulin, glucose, C-peptide and nonesterified fatty acids) and cardiovascular (blood pressure) measures. For every model, an evaluation of non-linear term was performed, and, if significance was detected, that polynomial term for time was included in the model. Treatment, time and treatment by time interaction were included as fixed effects. Time nested within subjects was included as a random effect. If an interaction was detected, post hoc comparisons were performed comparing treatment groups at each time point. Cortisol was log-transformed for the purpose of normalizing distribution. The summary measure for cortisol analysis was peak change from baseline. […] Significance values are reported as detected; no adjustments were made for multiple comparisons.

The subject of data set [2] is overnight abstinent smokers. Nature of the data set: Salivary cortisol response to Trier Social Stress Test (Example 1). The settings on record: 60 IU vs placebo, F(1,35)=12.78, p≤0.001. From the text:
Intranasal spray administration of insulin or placebo occurred at 12:30 PM. The purpose of the spacing time between morning check-in and nasal spray administration was stabilization of postprandial insulin levels. In a randomized fashion, the study nurse administered one spray in each nostril every three minutes for the total of six sprays of either insulin or placebo. Instructions to perform the Trier Social Stress Test were given at 13:20, and speech delivery occurred 13:30. Briefly, the Trier Social Stress Test^13 is a standardized laboratory stressor consisting of a free speech and a mental arithmetic task in front of an audience. Participants were introduced to the task and instructed to prepare a 5-minute presentation in which they were to promote their candidacy for a job. […]
Salivary measures: Saliva samples were collected using a saliva collection kit (Salimetrics, LLC, Carlsbad, Calif.). Saliva samples were collected at 08:30, 12:20, 13:00, 13:40, 13:50, 14:00, 14:10, and 14:40, and analyzed for cortisol as follows: A microtitre plate was coated with monoclonal antibodies to cortisol using salivary cortisol ELISA kit (Salimetrics, LLC, Carlsbad, Calif.). […] Bound cortisol peroxidase was measured by the reaction of the peroxidase enzyme on the substrate tetramethylbenzidine (TMB). […] Optical density was read on a standard plate at 450 nm. […]

Data set [3] relates to overnight abstinent smokers. Description: Positive and Negative Affect Schedule (PANAS) mood ratings (Example 1). From the text: Intranasal spray administration of insulin or placebo occurred at 12:30 PM. The purpose of the spacing time between morning check-in and nasal spray administration was stabilization of postprandial insulin levels. In a randomized fashion, the study nurse administered one spray in each nostril every three minutes for the total of six sprays of either insulin or placebo. Instructions to perform the Trier Social Stress Test were given at 13:20, and speech delivery occurred 13:30. Briefly, the Trier Social Stress Test^13 is a standardized laboratory stressor consisting of a free speech and a mental arithmetic task in front of an audience. Participants were introduced to the task and instructed to prepare a 5-minute presentation in which they were to promote their candidacy for a job. The speech was delivered after a 10-minute preparation period. Thereafter, participants were introduced to the mental arithmetic task, also standing in front of the audience and a self-projecting television screen. Subjects were required to count backwards from 2023 in steps of 17 as fast and accurately as possible for five minutes; upon making a mistake, subjects were asked to stop and start again at 2023. At every post-stress timepoint (13:40, 13:50, 14:00, 14:10, and 14:40), study nurses checked POC glucose to ensure euglycemia. After the last time point at 14:40, subjects ate a snack, had their glucose level checked, received another nares exam, and were discharged from the clinic at 16:00.
Subjective measures included the Questionnaire on Smoking Urges (QSU) Brief Form and Positive and Negative Affect Schedule (PANAS). Urges to smoke were rated using the 10-item QSU Brief Form^14 that consists of 10-questions. The answers are scored from 1 (strongly disagree) to 7 (strongly agree). These questions are the basis for the two factor derived subscales. Factor 1 subscale reflects a strong desire and intention to smoke with smoking perceived as rewarding. Factor 2 subscale reflects an anticipation of relief from negative affect with an urgent desire to smoke. Study data analysis included evaluations of both factors. The PANAS (Watson et al., 1988. J Pers Soc Psychol 54(6):1063-1070) consists of 10 negative and 10 positive mood terms rated on five-point Likert-type response scales from 1 (very slightly or not at all) to 5 (extremely). Positive and negative scale scores each range between 10 and 50. The PANAS was chosen as a composite measure of self-reported positive and negative affect. Subjective measures were taken at 08:30, 12:20, 13:00, 13:40, 13:50, 14:00, 14:10 and 14:40.
Random coefficient models were constructed for analyzing subjective (i.e., craving and mood), blood (insulin, glucose, C-peptide and nonesterified fatty acids) and cardiovascular (blood pressure) measures. For every model, an evaluation of non-linear term was performed, and, if significance was detected, that polynomial term for time was included in the model. Treatment, time and treatment by time interaction were included as fixed effects. Time nested within subjects was included as a random effect. If an interaction was detected, post hoc comparisons were performed comparing treatment groups at each time point. Cortisol was log-transformed for the purpose of normalizing distribution. The summary measure for cortisol analysis was peak change from baseline. Baseline cortisol was the 8:30 AM measurement, and time period for determination of peak was between 13:40 and 14:40. This time period reflects any cortisol change that resulted from the psychosocial stress procedure, with speech occurring from 13:30 to 13:35 and math from 13:35 to 13:40. Group differences were compared using analysis of variance (ANOVA). Significance values are reported as detected; no adjustments were made for multiple comparisons.

“Also recorded” adds a separate entry of the source.

“intranasal insulin: bulk human Regular insulin (U100 Novolin R, Novo Nordisk US), 100 IU/ml, six nasal sprays delivering 60 IU”: in data set [1] (60 IU intranasal vs placebo), the “Glucose, effect of treatment” value is given as “did not differ; also recorded: subjects remained well within euglycemic range; also recorded: minor decline in plasma glucose concentrations” and the “Serum (circulating) insulin levels, effect of treatment” value is “did not differ; also recorded: no detection of treatment effects; also recorded: no significant changes in circulating insulin”. Also, the “Serum insulin, treatment×time interaction, b” value in data set [1] (SE(b)=0.01, z=−0.37, p=0.71, non-significant) is −0.005. The “Glucose, treatment×time interaction, b” value in data set [1] (SE(b)=0.02, z=2.60, p≤0.01) is reported as 0.05. Besides, the “Glucose, treatment, b” value in data set [1] (SE(b)=2.55, z=−1.06, p=0.28) is recorded as −2.72. Besides, the “Peak salivary cortisol levels following stress procedure (peak change from baseline, log-transformed)” value in data set [2] is reported as “increased (i.e., restored) the blunted cortisol response to stress; also recorded: restores blunted cortisol response to stress”. Further, the “Peak salivary cortisol levels following stress procedure (peak change from baseline, log-transformed)” value in data set [2] (listed as Intranasal insulin) is on record as “significantly increased”. For the same substance, in data set [3] (60 IU vs placebo), the “Negative mood ratings (PANAS), effect of treatment” value was “the effect of treatment was not significant” and the “Positive mood ratings (PANAS), effect of treatment” value was “no effect”. In addition, the “Negative mood ratings (PANAS), effect of treatment” value in data set [3] (60 IU vs placebo, listed as Intranasal insulin) is “no effect”. Besides, the “Negative mood (PANAS), treatment×time interaction, b” value in data set [3] (SE(b)=0.01, z=0.10, p=0.92, not significant) is recorded as 0.001. For the same substance, in data set [3] (SE(b)=0.017, z=−0.97, p=0.33, not significant), the “Positive mood (PANAS), treatment×time interaction, b” value was −0.01. Moreover, the “Negative mood (PANAS), effect of treatment, b” value in data set [3] (SE(b)=1.30, z=1.07, p=0.28, not significant) amounted to 1.38. In addition, the “Positive mood (PANAS), treatment, b” value in data set [3] (SE(b)=2.47, z=−0.19, p=0.84, not significant) is listed as −0.47.
